Measured values published in patent US8815903B2, “Indole derivative and pharmacologically acceptable salt thereof” (Kissei Pharmaceutical Co., Ltd., priority 2011, dated 2014).

Molecular target: T1, rat EP1 receptor (Rattus norvegicus, UniProt P70597)
T1 construct: expressed in transfected cells
T1 sequence (P70597 1-405): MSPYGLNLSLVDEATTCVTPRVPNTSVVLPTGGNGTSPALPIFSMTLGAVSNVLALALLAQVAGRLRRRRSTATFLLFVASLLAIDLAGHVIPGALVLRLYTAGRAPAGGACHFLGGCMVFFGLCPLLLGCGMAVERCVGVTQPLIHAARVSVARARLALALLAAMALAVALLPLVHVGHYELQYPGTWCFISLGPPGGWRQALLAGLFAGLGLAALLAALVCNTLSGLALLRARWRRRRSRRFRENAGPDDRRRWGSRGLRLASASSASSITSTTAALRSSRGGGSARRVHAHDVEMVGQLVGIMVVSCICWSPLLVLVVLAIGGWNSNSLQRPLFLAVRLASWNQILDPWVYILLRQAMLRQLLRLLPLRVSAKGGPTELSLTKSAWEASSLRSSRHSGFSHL
Assay: Test for confirmation of EP1 receptor antagonism (inhibition of PGE2-induced increase in intracellular calcium concentration)
Type: cell-based
Conditions: rat EP1 receptor-expressing COS-1 cells; prostaglandin E2 10 nM; fluorescent calcium indicator, FDSS 7000
Procedure: Test for Confirmation of EP1 Receptor Antagonism
(1) Preparation of Rat EP1 Expression Vector
Using Rat Kidney BD Marathon-Ready cDNA (Nippon Becton Dickinson Company, Ltd.) as a template, a forward primer shown in (SEQ ID NO:1), and a reverse primer shown in (SEQ ID NO:2), a first run of PCR was carried out using KOD-Plus-Ver 2.0 (Toyobo Co., Ltd.). Further, using this amplification product as a template, a forward primer shown in (SEQ ID NO:3), and a reverse primer shown in (SEQ ID NO:4), a second run of PCR was carried out in the same manner. The amplification product obtained by the second run of PCR was incorporated into a vector (pcDNA3.1 D/V5-His-TOPO (registered trademark), Invitrogen Japan K. K.). By a conventional method, the vector containing this amplification product was introduced to E. coli (One Shot TOP 10 Competent Cells, Invitrogen Corporation) to transform. This transformed E. coli was cultured in an LB agar medium for one day. After the culture, colonies were selected and cultured in an LB liquid medium containing 50 μg/mL of ampicillin. After the culture, the vector was purified using a QIAprep Spin Miniprep Kit (Qiagen K. K.). The base sequence of the insertion site of this vector (SEQ ID NO:5) was compared with the rat EP1 base sequence (Ptger1) registered as Accession No. NM_013100 in publicly-known database (NCBI), and as a result, they all matched except for a single base. Further, the amino acid sequence translated by the base sequence completely matched the amino acid sequence of the rat EP1 receptor registered as an NCBI Accession No. NP_037232. Therefore, it was confirmed that the cloned gene sequence was a base sequence of the rat EP1 receptor and the obtained amino acid sequence was that of the rat EP1 receptor. The pcDNA3.1 D/V5-His-TOPO (registered trademark) to which the nucleic acid shown in (SEQ ID NO:5) had been inserted was taken as a rat EP1-expressing vector.
(2) Preparation of Rat EP1 Receptor-Expressing Cells
COS-1 cells (Dainippon Sumitomo Pharma Co., Ltd.) were cultured until they reached confluence in an incubator at 37° C. under a 5% CO2 gas condition, using a D-MEM liquid medium (high glucose and L-glutamine contained, Invitrogen Corporation) to which a penicillin-streptomycin solution (Invitrogen Corporation, final concentration: 100 U/mL as benzylpenicillin; 100 μg/mL as streptomycin) as an antibiotic, MEM nonessential amino acids (Invitrogen Corporation, final concentration: 0.1 mM), and fetal calf serum (Sanko Junyaku Co., Ltd., final concentration: 10%) were added.
The cells that had reached confluence were stripped with 0.05% trypsin/0.53 mM EDTA.4Na, and resuspended in a D-MEM liquid medium (high glucose and L-glutamine contained, Invitrogen Corporation) to which an MEM nonessential amino acid (final concentration: 0.1 mM) and fetal calf serum (final concentration: 10%) were added. In each well of a Poly D-lysine-coated 96-well microplate (BD BioCoat (registered trademark), Nippon Becton Dickinson Company, Ltd.), this resuspended cell suspension culture was prepared to be 5×10^4 cells/well in 100 μL of the liquid medium, and 100 μL of the cell suspension was seeded on each well. After seeding, the cells were cultured in an incubator at 37° C. under a 5% CO2 gas condition. At a point when the cells for introduction of a rat EP1-expressing vector were adhered (about 2 hours after seeding), introduction of the rat EP1-expressing vector was carried out in the following order.
For introduction of the rat EP1-expressing vector, Lipofectamine 2000 (Invitrogen Japan K. K.) was used. The rat EP1-expressing vector was diluted with OPTI-MEM (registered trademark) I Reduced-Serum Medium (Invitrogen Japan K. K.) to 200 ng/25 μL/well, and at the same time, Lipofectamine 2000 (Invitrogen Japan K. K.) was also diluted with OPTI-MEM (registered trademark) I Reduced-Serum Medium (Invitrogen Japan K. K.) to 0.5 μL/25 μL/well, followed by incubation at room temperature for 5 minutes. […]

Structure (SMILES) | IC50
Cc1ccc2c(Cc3cccc(-c4noc(=O)[nH]4)n3)c(-c3ccsc3)[nH]c2c1 [Example 12-9] | 34 nM
CCS(=O)(=O)NC(=O)c1cccc(Cc2c(-c3ccccc3)[nH]c3cc(Cl)ccc23)n1 [Example 3-24] | 58 nM
COc1ccc2c(Cc3cccc(C(=O)NS(=O)(=O)C(C)C)n3)c(-c3ccccc3)[nH]c2c1 [Example 3-13] | 27 nM
COc1ccc2c(Cc3cccc(-c4noc(=O)[nH]4)n3)c(C(C)(C)C)[nH]c2c1 [Example 12-2] | 43 nM
CS(=O)(=O)NC(=O)c1cccc(Cc2c(-c3ccccc3)[nH]c3cc(Cl)ccc23)n1 [Example 3-25] | 78 nM
Cc1cc2[nH]c(-c3ccccc3)c(Cc3cccc(-c4noc(=O)[nH]4)n3)c2cc1C [Example 12-7] | 28 nM
COc1ccc2c(Cc3cccc(-c4nnn[nH]4)n3)c(-c3cccnc3)[nH]c2c1 [Example 5-10] | 13 nM
COc1cc2[nH]c(-c3ccccc3)c(Cc3cccc(-c4noc(=O)[nH]4)n3)c2cc1F [Example 12-5] | 46 nM
O=c1[nH]c(-c2cccc(Cc3c(-c4ccccc4)[nH]c4cc(C5CC5)ccc34)n2)no1 [Example 12-6] | 40 nM
COc1ccc2c(Cc3cccc(-c4nnn[nH]4)n3)c(-c3ccsc3)[nH]c2c1 [Example 5-4] | 12 nM
COc1ccc2c(Cc3cccc(C(=O)NS(=O)(=O)c4ccccc4)n3)c(C(C)(C)C)[nH]c2c1 [Example 3-11] | 17 nM
COc1ccc2c(Cc3cccc(-c4nnn[nH]4)n3)c(-c3csc(C)c3)[nH]c2c1 [Example 5-12] | 26 nM
COc1ccc2c(Cc3cccc(C(=O)NS(=O)(=O)C4CC4)n3)c(-c3ccccc3)[nH]c2c1 [Example 3-10] | 47 nM
Cc1ccc2c(Cc3cccc(-c4nnn[nH]4)n3)c(-c3ccsc3)[nH]c2c1 [Example 5-13] | 30 nM

Now from value to compound:

IC50 | Structure (SMILES)
27 nM | COc1cc2[nH]c(-c3ccccc3)c(Cc3cccc(C(=O)NS(=O)(=O)c4ccccc4)n3)c2cc1F [Example 18-11]
23 nM | COc1ccc2c(Cc3cccc(-c4nnn[nH]4)n3)c(C(C)C)[nH]c2c1 [Example 17-5]
41 nM | COc1cc2[nH]c(-c3ccccc3)c(Cc3cccc(C(=O)NS(=O)(=O)C(C)C)n3)c2cc1F [Example 18-3]
7.3 nM | Cc1ccc2c(Cc3cccc(-c4nnn[nH]4)n3)c(-c3ccoc3)[nH]c2c1 [Example 17-8]
34 nM | COc1ccc2c(Cc3cccc(/C=C/c4nnn[nH]4)n3)c(-c3ccccc3)[nH]c2c1 [Example 19, 6-Methoxy-2-phenyl-3-{6-[(E)-2-(1H-tetrazol-5-yl)vinyl]pyridine-2-ylmethyl}-1H-indole]
11 nM | COc1ccc2c(Cc3cccc(-c4nnn[nH]4)n3)c(-c3cncnc3)[nH]c2c1 [Example 23, 6-Methoxy-2-pyrimidin-5-yl-3-[6-(1H-tetrazol-5-yl)pyridin-2-ylmethyl]-1H-indole]
32 nM | CCCS(=O)(=O)NC(=O)c1cccc(Cc2c(-c3ccccc3)[nH]c3cc(OC)c(F)cc23)n1 [Example 18-5]
27 nM | COc1cc2c(Cc3cccc(-c4nnn[nH]4)n3)c(C3(C)CC3)[nH]c2cc1Cl [Example 20-1, 6-chloro-5-methoxy-2-(1-methylcyclopropyl)-3-[6-(1H-tetrazol-5-yl)pyridin-2-ylmethyl]-1H-indole]
54 nM | Cc1ccc2c(Cc3cccc(C(=O)NC#N)n3)c(-c3ccccc3)[nH]c2c1 [Example 16-1]
30 nM | COc1ccc2c(Cc3cccc(-c4nnn[nH]4)n3)c(C3CCCCC3)[nH]c2c1 [Example 17-7]
10 nM | c1cc(Cc2c(-c3ccoc3)[nH]c3cc(C4CC4)ccc23)nc(-c2nnn[nH]2)c1 [Example 17-9]
35 nM | COc1cc2[nH]c(-c3ccccc3)c(Cc3cccc(C(=O)NS(=O)(=O)C4CC4)n3)c2cc1F [Example 18-4]
24 nM | CC1(c2[nH]c3cc(Cl)ccc3c2Cc2cccc(-c3nnn[nH]3)n2)CC1 [Example 17-14, 6-chloro-2-(1-methylcyclopropyl)-3-[6-(1H-tetrazol-5-yl)pyridin-2-ylmethyl]-1H-indole]
